Experimental data published in PMC12737022, “Evaluations of Sex Differences in Dosimetry in Rats Following Perfluorohexanesulfonamide (PFHxSA) Oral Exposure” (Toxics, 2025).
Where “and” joins values, the source holds several entries; their conditions need not be identical. Identical values can stand only once. Like-named read-outs stand apart in the source and are kept apart here.

What was measured:
[1] = Plasma dosimetry of PFHxSA and PFHxS by targeted LC/MS/MS; format: in vivo, rat; settings: for concentration at 24 h: Sprague Dawley (Crl:CD(SD)), rat, plasma, oral
From the text: The plasma and liver samples for this investigation were provided by Mutlu et al.. The study design, including detailed descriptions of animal handling, procedures for dosing, clinical observations, termination, and collection of tissues, is reported elsewhere and is consistent with the ARRIVE guidelines. Briefly, male and female Sprague Dawley (SD) rats (Crl:CD(SD)) (n = 48/sex, 96 total) were purchased from Charles River Laboratory (Raleigh, NC, USA) and allowed to acclimate for ≥5 days before initial dosing. Rats were 8–10 weeks old at the time of exposure. PFHxSA dosing solutions in corn oil were prepared on Day 0 and used over the course of the study. Rats of both sexes (n = 5/sex, dose, and time point, plus eight vehicle controls per sex) were dosed by oral gavage (5 mL/kg body weight) once daily for five days. […] The formulation concentrations decreased from 100 mg/kg/day at half-log10 intervals until the lowest dose level, which was a full log10 interval below the next higher dose, giving eight dose levels (0.01 to 100 mg/kg/day or 0.025 µmol/kg/day to 250 µmol/kg/day) in addition to vehicle controls. Doses were administered in randomized order within ± 1 h on each day of dosing. […] Rats were euthanized 24 h after the last dose. Blood was collected via cardiac puncture with tripotassium ethylene diamine tetraacetic acid (K3EDTA) as an anti-coagulant and centrifuged to collect cell-free plasma. Liver was collected and flash-frozen in liquid nitrogen. Liver, plasma, and dosing formulation samples were frozen at the USEPA Center for Computational Toxicology and Exposure (CCTE), Durham, NC, USA. Tissue samples (plasma and liver, n = 96 each) were stored at ≤−70 °C prior to extraction; dosing formulation samples (n = 9) were stored at −20 °C.
Detailed information on solvents and standards used for targeted LC/MS/MS of PFHxSA and PFHxS can be found in SI Text S1 and SI Table S1. Plasma and liver preparations were modified from Conley et al.. Briefly, aliquots of plasma (25 µL) and liver (~10 mg) were spiked with PFOSA as an internal standard, as no isotope-labeled PFHxSA was available. Sample batches included up to 96 samples along with an MB, CCV, and LCS for QC. Commercial plasma (mixed-sex SD rat plasma) and liver (mixed-sex SD rat) were obtained from BioIVT (Westbury, NY, USA). Cold acetonitrile (ACN) with 0.1 M formic acid was used to precipitate proteins. Liver and plasma samples were prepared similarly, except that the livers were homogenized after solvent addition. Plasma samples were vortexed to mix before being chilled at −20 °C, after which samples were centrifuged at 5 °C and 10,000× g. Liver samples were chilled at −80 °C, then homogenized using an Omni International (Kennesaw, GA, USA) Bead Ruptor 24. Liver homogenates were centrifuged at 26,000× g and 5 °C. Supernatants from the extraction of both matrices were removed and stored at −20 °C until analysis. Refer to SI Text S4 for additional experimental details and information on calibration and QC parameters for quantitation of PFHxSA.
Targeted LC/MS/MS of PFHxSA was performed on a Sciex 4000 QTRAP LC/MS/MS system operated in negative ESI mode with MRM scanning. A Restek (Bellefonte, PA, USA) Raptor Polar X (100 mm × 2 mm, 2.7 µm) column was used for liquid chromatography. Isocratic elution occurred over 10 min with a 30:70 ratio of mobile phase A (10 mM ammonium formate): mobile phase B (60:40 ACN: methanol). Both mobile phases included 0.05% formic acid. The LOQs for PFHxSA were 0.100 µM in plasma and 0.351 µM in liver. Additional details of the instrument method parameters for targeted analysis of PFHxSA are provided in SI Table S5. The MRM transitions for the PFHxSA method are provided in SI Table S6. […]

[2] = Ultracentrifugation plasma protein binding assay, rat plasma; format: in vitro ADME; settings: both sexes, SD
Method: Human and rat plasma were evaluated for plasma protein binding of PFHxSA and PFHxS using ultracentrifugation. Data generated in human plasma were obtained from an earlier study; for this study, data were generated in rat plasma following the same protocol as described by Smeltz et al.. SD rat plasma (pooled, mixed sex) was obtained from a commercial vendor (BioIVT, Westbury, NY, USA). Briefly, PFHxSA and PFHxS were added to the plasma to achieve a final assay concentration of 10 µM. Following a 1 h 37 °C incubation, 1 mL aliquots from each plasma solution were drawn in triplicate and transferred to polycarbonate ultracentrifuge tubes. These samples underwent ultracentrifugation (Beckman OptimaMax; Beckman Coulter Inc., Indianapolis, IN, USA) at 850,000× g for 4 h at 37 °C; after completion, the aqueous fraction (AF) was collected by transferring the supernatant to a new tube. Two sets of samples of the original PFAS-spiked whole plasma were also collected after a 1 h or a 5 h incubation at 37 °C. All samples were combined with 3 volumes of ice-cold ACN containing relevant internal standard, vigorously mixed, then centrifuged at 12,000× g for 10 min at 4 °C. Supernatants were collected and then stored at <−70 °C until analysis.
Targeted, quantitative analysis of in vitro hepatocyte metabolic stability and plasma protein binding assay samples was conducted on a Waters (Milford, MA, USA) Xevo-TQS micro ultra-high-performance liquid chromatography tandem mass spectrometry system (UPLC-MS/MS), modified with a PFAS analysis kit. Samples were analyzed in negative ion mode with UniSpray ionization. Samples were analyzed in triplicate, with a reference compound included to evaluate assay performance. A CORTECS T3 column (Waters; 3 mm × 100 mm, 2.7 µm) was used for chromatographic separation with a flow rate of 0.6 mL/min and a temperature of 55 °C. Gradient elution was used with mobile phase A (95:5 H2O/ACN) and mobile phase B (95:5 ACN/H2O), each with 2.5 mM of ammonium acetate added. More details are provided in Smeltz et al..
Intrinsic hepatic clearance (Clint) and fraction unbound in plasma (fup) were calculated from the experimental point estimate data as described in Dobreniecki et al.. Steady-state concentrations (Css) were derived based on zero-order uptake of an assumed daily dose from the gut (assuming 100% intestinal bioavailability) but considering hepatic clearance and non-metabolic renal clearance. Renal clearance was calculated using the glomerular filtration rate (a species-dependent constant) and the fraction unbound in blood (fub), estimated by adjusting the experimental fup for blood/plasma partitioning. The Css calculations, along with underlying species-specific physiologic scalars, are detailed in SI Texts S6 and S7.

SMILES: NS(=O)(=O)C(F)(F)C(F)(F)C(F)(F)C(F)(F)C(F)(F)C(F)(F)F [PFHxSA, Perfluorohexanesulfonamide]
- Female PFHxSA plasma concentrations versus male plasma ([1]; at 30 and 100 mg/kg/day): at least two-fold higher
- Female plasma PFHxSA levels higher than males, on average ([1]; doses of 10 mg/kg/day and up): 2.9 fold
- concentration at 24 h ([1]; female, 0.01 mg/kg/day, PFHxSA 0.01 mg/kg/day oral 5 days, female rats, mean ± SD, one sample estimated as half the LOQ, read-out: PFHxSA Female Plasma Conc.): 0.117 ± 0.043 µM
- concentration at 24 h ([1]; female, 0.1 mg/kg/day, PFHxSA 0.1 mg/kg/day oral 5 days, female rats, mean ± SD, read-out: PFHxSA Female Plasma Conc.): 1.1 ± 0.11 µM
- concentration at 24 h ([1]; female, 0.1 mg/kg/day, PFHxSA 0.1 mg/kg/day oral 5 days, female, individual rats, read-out: PFHxSA Female Plasma Conc.): 1.03 µM and 410 ng/mL
- concentration at 24 h ([1]; female, 0.3 mg/kg/day, PFHxSA 0.3 mg/kg/day oral 5 days, female rats, mean ± SD, read-out: PFHxSA Female Plasma Conc.): 4.34 ± 1.6 µM
- concentration at 24 h ([1]; female, 1 mg/kg/day, PFHxSA 1 mg/kg/day oral 5 days, female rats, mean ± SD, read-out: PFHxSA Female Plasma Conc.): 21.3 ± 9.1 µM
- concentration at 24 h ([1]; female, 3 mg/kg/day, PFHxSA 3 mg/kg/day oral 5 days, female rats, mean ± SD, read-out: PFHxSA Female Plasma Conc.): 37.1 ± 13 µM
- concentration at 24 h ([1]; female, 10 mg/kg/day, PFHxSA 10 mg/kg/day oral 5 days, female rats, mean ± SD, read-out: PFHxSA Female Plasma Conc.): 64.9 ± 17 µM
- concentration at 24 h ([1]; female, 10 mg/kg/day, PFHxSA 10 mg/kg/day oral 5 days, female, individual rats, read-out: PFHxSA Female Plasma Conc.): 19600 ng/mL and 49 µM
- concentration at 24 h ([1]; female, 30 mg/kg/day, PFHxSA 30 mg/kg/day oral 5 days, female rats, mean ± SD, read-out: PFHxSA Female Plasma Conc.): 179 ± 66 µM
- concentration at 24 h ([1]; female, 100 mg/kg/day, PFHxSA 100 mg/kg/day oral 5 days, female, individual rats, read-out: PFHxSA Female Plasma Conc.): 111000 ng/mL and 278 µM
- concentration at 24 h ([1]; male, 0.01 mg/kg/day, PFHxSA 0.01 mg/kg/day oral 5 days, male rats, single rat above the LOQ, read-out: PFHxSA Male Plasma Conc.): 0.102 µM
- concentration at 24 h ([1]; male, 0.01 mg/kg/day, PFHxSA 0.01 mg/kg/day oral 5 days, male, individual rats, read-out: PFHxSA Male Plasma Conc.): 40.6 ng/mL and 102 nM
- concentration at 24 h ([1]; male, 0.1 mg/kg/day, PFHxSA 0.1 mg/kg/day oral 5 days, male rats, mean ± SD, read-out: PFHxSA Male Plasma Conc.): 0.796 ± 0.28 µM
- concentration at 24 h ([1]; male, 0.3 mg/kg/day, PFHxSA 0.3 mg/kg/day oral 5 days, male rats, mean ± SD, read-out: PFHxSA Male Plasma Conc.): 4.26 ± 0.48 µM
- concentration at 24 h ([1]; male, 0.3 mg/kg/day, PFHxSA 0.3 mg/kg/day oral 5 days, male, individual rats, read-out: PFHxSA Male Plasma Conc.): 1640 ng/mL and 3.49 µM
- concentration at 24 h ([1]; male, 1 mg/kg/day, PFHxSA 1 mg/kg/day oral 5 days, male rats, mean ± SD, read-out: PFHxSA Male Plasma Conc.): 11.4 ± 2.2 µM
- concentration at 24 h ([1]; male, 1 mg/kg/day, PFHxSA 1 mg/kg/day oral 5 days, male, individual rats, read-out: PFHxSA Male Plasma Conc.): 4950 ng/mL and 12.4 µM
- concentration at 24 h ([1]; male, 3 mg/kg/day, PFHxSA 3 mg/kg/day oral 5 days, male rats, mean ± SD, read-out: PFHxSA Male Plasma Conc.): 27.1 ± 8 µM
- concentration at 24 h ([1]; male, 3 mg/kg/day, PFHxSA 3 mg/kg/day oral 5 days, male, individual rats, read-out: PFHxSA Male Plasma Conc.): 9190 ng/mL and 23 µM
- concentration at 24 h ([1]; male, 10 mg/kg/day, PFHxSA 10 mg/kg/day oral 5 days, male rats, mean ± SD, read-out: PFHxSA Male Plasma Conc.): 56.8 ± 14 µM
- concentration at 24 h ([1]; male, 10 mg/kg/day, PFHxSA 10 mg/kg/day oral 5 days, male, individual rats, read-out: PFHxSA Male Plasma Conc.): 17700 ng/mL and 44.3 µM
- concentration at 24 h ([1]; male, 30 mg/kg/day, PFHxSA 30 mg/kg/day oral 5 days, male rats, mean ± SD, read-out: PFHxSA Male Plasma Conc.): 81.2 µM
- concentration at 24 h ([1]; male, 30 mg/kg/day, PFHxSA 30 mg/kg/day oral 5 days, male, individual rats, read-out: PFHxSA Male Plasma Conc.): 27700 ng/mL and 69.4 µM
- concentration at 24 h ([1]; male, 100 mg/kg/day, PFHxSA 100 mg/kg/day oral 5 days, male rats, average, read-out: PFHxSA Male Plasma Conc.): 62.1 µM
- concentration at 24 h ([1]; male, 100 mg/kg/day, PFHxSA 100 mg/kg/day oral 5 days, male, individual rats, read-out: PFHxSA Male Plasma Conc.): 29500 ng/mL and 74 µM
- fraction unbound at 1 h, 10 µM ([2]; blood (estimated from fup in plasma), Rat, fup adjusted for blood/plasma partitioning, read-out: fub (fraction unbound in blood)): 0.0018
- fraction unbound at 1 h, 10 µM ([2]; Rat plasma, 10 µM, ultracentrifugation, read-out: fup (fraction unbound in plasma)): 0.001
